Values quoted from earlier work, collected in patent US7879371B2 (priority 2002, dated 2011).
Read-outs that look alike come from different tables or passages of the source.

Columns and labels:
[1] = tested on: A. tumefaciens str. A348 (pSM358) virE::lacZ
[2] = tested on: A. tumefaciens nopaline type strains T37 and C58
[3] = tested on: A. tumefaciens vir genes, strain A348 (pSM243cd); settings: for vir gene induction efficiency versus corresponding phenolic acids: strain A348 (pSM243cd), only above 100 μM
[4] = cultures of strains C58F and T37

SMILES: COc1cc(C=O)cc(OC)c1O[C@@H]1O[C@H](CO)[C@@H](O[C@H]2O[C@H](CO)[C@@H](O)[C@H](O)[C@H]2O)[C@H](O)[C@H]1O [beta-maltoside of syringaldehyde]
- vir-inducing activity versus free phenol ([1]; at high concentrations): higher activity than the free phenol

SMILES: COc1cc(C(C)=O)cc(OC)c1O[C@H]1O[C@@H](C)[C@@H](O)[C@@H](O)[C@@H]1O [Acetosyringonyl beta-L-fucopyranoside]
- vir-inducing activity ([1]; 13 synthetic beta-glycosides compared): most active monoglycoside tested
- toxic effects ([1]; even at high concentrations): devoid of toxic effects

SMILES: COc1cc(C=CC(=O)O)cc(OC)c1O (stereo in doubt) [sinapinic acid]
- growth of A. tumefaciens strains [2, 4]: inhibited growth

SMILES: COc1cc(C(C)=O)cc(OC)c1O [acetosyringone]
- growth of A. tumefaciens strains [2]: inhibited the growth

SMILES: CCNC(=O)/C=C/c1ccc(O)c(OC)c1 [ethylferulamide]
- vir gene induction efficiency versus corresponding phenolic acids [3]: more efficient than the corresponding phenolic acids

SMILES: CCNC(=O)/C=C/c1cc(OC)c(O)c(OC)c1 [ethylsinapamide]
- vir gene induction efficiency versus corresponding phenolic acids [3]: more efficient than the corresponding phenolic acids

SMILES: CCNC(=O)c1cc(OC)c(O)c(OC)c1 [ethylsyringamide]
- vir gene induction activity versus acetosyringone ([3]; concentrations above 1 mM): higher activity than acetosyringone

SMILES: COc1cc(C=O)cc(OC)c1O [syringaldehyde]
- growth of A. tumefaciens strains [2, 4]: inhibited growth
